In general, IC50 refers to the concentration at which inhibition is half-maximal.

Series [1] deals with HDF normal diploid fibroblast cells. Put plainly: FACS assay (cell death), HDF. The format is cell-based. The note with it: 50% cell death, 72 h. The method, then: These assays allow determination of both cell death and changes in cell cycle profile in cells following treatment of the compound. The assay is performend as follows: • 1. Cells are incubated in DMEM to which 10% FCS has been added in a humidified incubator at 37° C. and 5% by volume of CO2 in air. The cells are innoculated in 6-well plates at a density of 0.5–5×10^5 cells per well. • 2. The test compound is added in serial dilutions 24–36 h after plating in 0.5% DMSO. The plates are then incubated a further 72 h in the presence of the compound. During this time, cells in control cultures undergo at least three cell divisions. • 3. After incubation, the media is collected and cells are harvested by trypsinization. The cells and media are pooled and pelleted by centrifugation. • 4. The cell pellet is fixed in a final volume of 3 mL of 50% ice cold MeOH and incubated for a minimum of 30 min at −20° C. • 5. The cells are pelleted by centrifugation and resuspended in 0.5 mL PBS containing 1%FCS, […] Propidium Iodide (PI) and 5 mg/mL RNase A and incubated 30 min at 37° C. in the dark. • 6. The samples are analysed by flow cytometry using the relative incorporation of PI as a measure of DNA content of each cell. The % Dead cells is recorded as % of events with less than 2N DNA. […] HDF are normal diploid fibroblast cells. RKO are colon adenocarcinoma cells and MES/SA are ovarian carcinoma cells.

In another series the target is T1, c-fms (Homo sapiens, UniProt P07333).
T1 sequence (P07333 539-972 limits assumed): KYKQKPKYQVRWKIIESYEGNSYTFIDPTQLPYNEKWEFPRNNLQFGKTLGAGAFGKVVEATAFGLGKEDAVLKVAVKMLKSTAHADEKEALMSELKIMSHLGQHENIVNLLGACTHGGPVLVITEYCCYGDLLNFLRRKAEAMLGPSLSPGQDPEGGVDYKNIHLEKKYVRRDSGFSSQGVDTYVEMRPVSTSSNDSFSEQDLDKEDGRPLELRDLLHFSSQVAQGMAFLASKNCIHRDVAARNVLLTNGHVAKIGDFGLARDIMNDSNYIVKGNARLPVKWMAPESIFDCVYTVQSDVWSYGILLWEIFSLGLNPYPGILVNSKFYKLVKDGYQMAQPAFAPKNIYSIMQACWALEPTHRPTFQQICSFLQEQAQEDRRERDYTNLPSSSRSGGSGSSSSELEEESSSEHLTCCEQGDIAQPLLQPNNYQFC
Put plainly: c-fms protein kinase assay (SPA). The format is biochemical. As to conditions: Table 7, class symbols; read-out: c-fms kinase inhibition IC50. The method, then: c-fms protein kinase assays utilized the peptide substrate, biotin-[…]-NH2, as the phosphoryl group acceptor. The c-fms intracellular domain was expressed from a baculovirus expression system, as an amino-terminal GST fusion protein, and purified to homogeneity using Glutathione agarose from Sigma Chemical Co. Maximum activation of the enzyme was achieved by preactivation at room temperature for 120 min in the presence of 100 μM ATP and 15 mM MgCl2, This enzyme stock was diluted to 150 nM prior to using in the assay. Typically assays were performed in white, opaque, 96-well plates in a 45 ul assay volume including 15 ul 6% DMSO, with or without compounds, 15 ul of the preactivated, diluted enzyme, and 15 ul of a substrate mixture. Reactions contained 50 mM HEPES, pH 7.5, 1.7 μM ATP, 15 mM MgCl2, 3 μM peptide, 2.5 mM DTT, 50 mM NaCl and 0.15 uCi/assay [^32P]ATP. The controls were reactions in the presence (negative controls) or absence (positive controls) of 50 mM EDTA. Reactions were allowed to proceed for 90 min at room temperature. The reaction products were quantified using Scintillation Proximity technolgy. […] Plates were sealed and counted in a Packard Topcount scintillation counter. […]

The subject of series [2] is HDF normal diploid fibroblast cells. Description: MTT assay, HDF. The format is cell-based. The note with it: Fibroblast, 72 h. On the procedure:
Compounds are tested for their ability to inhibit cell proliferation and cell viability. The metabolic conversion of 3-(4,5-dimethylthiazol-2-yl)-2,5-diphenyltetrazolium bromide (MTT, Sigma #M2128) to a reduced form is a commonly used measure of cellular viability. Following is the procedure: Cells are maintained in 75 cm^2 tissue culture flasks until ready for use. The cells are grown and plated for the assay in Dulbecco's modified Eagle's media (DMEM) containing 10% fetal bovine serum. For example, the following cell lines can be used: a) human foreskin fibroblasts (HFF); b) HT29 (human colon carcinoma cell line); c) MDA-MB468 (human breast carcinoma cell line); d) RKO (human colon adenocarcinoma cell line); e) SW620 (human colon carcinoma cell line); f A549 (human lung carcinoma cell line); and g) MIA PACA (human pancreatic carcinoma cell line). Cells are maintained at 37° C. in 10% CO2, 90% humidified air. Cells are plated in 96-well tissue culture plates at the densities listed below. 100 μL of cell suspension is added to each well of the 96-well plate except the top row of the plate which contains no cells and serves as a reference for the spectrophotometer. [table] Cells are incubated overnight in DMEM containing 10% fetal bovine serum at 37° C. in 10% CO2, 90% humidified air prior to dosing. […] Compounds with solubilities of less than 30 μM are dosed at the highest soluble concentration. Stock solutions of compounds are made in 100% dimethyl sulfoxide (DMSO). Stock solutions are diluted in DMEM containing 100 μg/ml gentamicin and 0.3 to 0.6% DMSO at the twice the highest concentration to be placed on the cells. If compounds have been dissolved in DMSO the final concentration of DMSO on the cells is kept below 0.3%. Three-fold serial dilutions are performed on each compound to prepare 10 concentrations of the compound for dosing. 100 μl of diluted compound is added to the 100 μl of media currently on the dish. For each concentration of compound, 2–4 replicate wells are prepared. Cells are returned to incubator and allowed to proliferate in the presence of compound for 72 h before addition of MTT. […] After 4 h incubation the media, compound and MTT mixture is aspirated from the plates and 100 μl of 100% DMSO is added to each well in addition to 25 μl of Sorenson's Buffer (0.1M glycine, 0.1M NaCl, pH 10.5). Quantitation of metabolic reduction of MTT in each plate is performed by reading optical density at 570 nm wavelength on a Molecular Devices UVmax microplate reader. […] HDF are normal diploid fibroblast cells. RKO are colon adenocarcinoma cells and MES/SA are ovarian carcinoma cells.
In general terms: Formazan colour is commonly taken as a measure of viable cells.

For the next series, the target named is CDK2 (Homo sapiens, UniProt P24941). Put plainly: CDK2 substrate phosphorylation assay. The format is biochemical.
Series [3] has as its system etoposide-induced alopecia. Put plainly: Protection from chemotherapy-induced alopecia in rat pups. In kind it is in vivo, Sprague-Dawley rat. The note with it: 6 mg/kg etoposide intraperitoneally. The method, then:
Protection from chemotherapy-induced alopecia is determined in 7 day old Sprague-Dawley rat pups. The treatment is carried out by administering the compounds topically to the head of the animal in doses from 0.01 to 10 mg/kg 2 h before and 2 h after the administration of a single dose of 6 mg/kg etoposide intraperitoneally. Six days after dosing, animals are scored visually for hair loss using a grading scale from 1 (complete hair loss) to 4 (no apparent hair loss). In this assay, the prior treatment of the animal with the compound of this invention results in a marked reduction in the severity of alopecia compared to vehicle treated controls. Under the above described conditions of treatment, the compounds of the present invention also protect against other toxicities of etoposide. […] Animals treated with the compounds of the present invention in combination with etoposide, in the schedule indicated above, gain weight normally and even exceed the body weight of control, untreated animals.

Experimental for CDK2: CDK1 and CDK2 were both expressed utilizing a baculovirus expression system and were partially purified to comprise 20–80% of total protein, with no detectable competing reactions present. […] Reactions were terminated with 0.2–2 volumes of either 20% acetic acid or 50–100 mM EDTA buffered to pH 7 (substrate consumption <20%). The buffer employed in enzyme assays was either 30 mM HEPES 7.4 containing 0.15 M NaCl and 5% DMSO, the buffer 50 mM MOPS 7.0 containing 0.15 M NaCl and 5% DMSO, or the buffer 100 mM HEPES pH 7.5 containing 0.1 mg/mL BSA and 5% DMSO. Inhibitors were diluted in 100% DMSO prior to addition into the assay. Detection of peptide phosphorylation was accomplished by scintillation counting following either collection of peptide onto phosphocellulose filters (for reactions stopped with acetic acid), collection of peptide in wells of 96 well plates coated with Streptavidin (Pierce) (reactions were stopped with EDTA), or addition of Avidin coated Scintillant impregnated beads (Scintillation Proximity Assays from Amersham, reactions were stopped with EDTA).
CDK1 and CDK2 were both expressed utilizing a baculovirus expression system and were partially purified to comprise 20–80% of total protein, with no detectable competing reactions present. […]

Take `CCC(C)Cc1cccc2c1C(=NNc1ccc(S(N)(=O)=O)cc1)C(=O)N2` (stereo not drawn) [Example 11]: in series [1], the IC50 was over 5 µM. For the compound `O=C1Nc2ccc3ncccc3c2/C1=C/Nc1ccc(CCO)cc1` [Example 32], the IC50 at c-fms was over 0.1 µM. For the compound `CN(C)S(=O)(=O)c1ccc(NC=C2C(=O)Nc3ccc(-c4cnco4)cc32)cc1` [Example 35], the IC50 in series [2] and in series [1] was over 5 µM throughout. On to `CS(=O)(=O)Cc1ccc(NC=C2C(=O)Nc3ccc4ncsc4c32)cc1` [Example 76, 8-(4-Methylsulfonylmethyl-phenylamino-methylene)-6,8-dihydro-1-thia-3,6-diaza-as-indacen-7-one], for which the IC50 in series [2] and in series [1] was over 5 µM in each case.

Take `CC(C)(CO)CNS(=O)(=O)c1ccc(NC=C2C(=O)Nc3ccc4ncsc4c32)cc1` [Example 77, N-(3-Hydroxy-2,2-dimethyl-propyl)4-[(7-oxo-6,7-dihydro-1-thia-3,6-diaza-as-indacen-8-ylidenemethyl)-amino]-benzenesulfonamide]: the IC50 in series [2] and in series [1] was over 5 µM throughout. With `CNS(=O)(=O)Cc1ccc(NN=C2C(=O)Nc3cc(C)c(O)c(C)c32)cc1` [Example 99], the IC50 is 0.6 to 1 µM in series [2], 0.051 to 0.1 µM against CDK2 and over 5 µM in series [1].

Regarding `O=C1Nc2ccc3ncsc3c2C1=CNc1ccc2nn[nH]c2c1` [Example 101, 8-(3H-Benzotriazol-5-ylaminomethylene)-6,8-dihydro-1-thia-3,6-diaza-as-indacene-7-one], the IC50 in series [2] and in series [1] was over 5 µM throughout. Turning to `CC(C)COC(=O)c1ccc2c(c1)C(=CNc1ccc(S(N)(=O)=O)cc1)C(=O)N2` [Example 103, 2-Oxo-3-(4-sulfamoyl-phenylamino-methylene)-2,3-dihydro-1H-indole-5-carboxylic acid isobutyl ester], in series [2], the IC50 was 1.1 to 5 µM. Turning to `COc1cc([C@@H]2c3cc4c(cc3[C@@H](O[C@@H]3O[C@@H]5CO[C@@H](C)O[C@H]5[C@H](O)[C@H]3O)[C@H]3COC(=O)[C@H]23)OCO4)cc(OC)c1O` [etoposide], the “body weight gain, etoposide alone compared to untreated animals” value in series [3] is “dramatic lack of weight gain”.

The values above are taken from patent US7105529B2, “Substituted oxindole derivatives as protein tyrosine and as protein serine/threonine kinase inhibitors and compositions and methods of treating chemotherapy and radiation therapy side effects” (SmithKline Beecham Corporation, priority 1997, dated 2006).
